ChEMBL document CHEMBL4406882, “The plant-derived chalcone Xanthoangelol targets the membrane of Gram-positive bacteria” (Bioorg Med Chem, 2019)
Converted amounts (≈) assume the structure as drawn. The source made the active and inactive calls. No cut-off for these calls is given here.

Assays:
Bacillus subtilis [1] = assay: Induction of MenB protein expression in Bacillus subtilis 168 at 2.3 uM incubated for 15 mins by 35S-methionine pulse labeling based 2D-PAGE analysis; format: functional, organism-based
Staphylococcus aureus [2] = assay: Induction of membrane integrity impairment in methicillin resistant Staphylococcus aureus Mu50 assessed as increase in release of ATP at 1 to 16 times MIC incubated for 1 hr by BacTiter-Glo Assay; format: functional, organism-based
Bacillus subtilis [3] = assay: Induction of Hag protein expression in Bacillus subtilis 168 at 2.3 uM incubated for 15 mins by 35S-methionine pulse labeling based 2D-PAGE analysis; format: functional, organism-based
Bacillus subtilis [4] = assay: Induction of GroEL.1 protein expression in Bacillus subtilis 168 at 2.3 uM incubated for 15 mins by 35S-methionine pulse labeling based 2D-PAGE analysis; format: functional, organism-based
Bacillus subtilis [5] = assay: Induction of HisG protein expression in Bacillus subtilis 168 at 2.3 uM incubated for 15 mins by 35S-methionine pulse labeling based 2D-PAGE analysis; format: functional, organism-based
Bacillus subtilis [6] = assay: Induction of PdhA protein expression in Bacillus subtilis 168 at 2.3 uM incubated for 15 mins by 35S-methionine pulse labeling based 2D-PAGE analysis; format: functional, organism-based
Staphylococcus aureus [7] = assay: Antibacterial activity against mid-exponential growth phase of methicillin-resistant Staphylococcus aureus ATCC 700699 assessed as increase in cell lysis at 12.5 to 25 uM; format: functional, organism-based
Bacillus subtilis [8] = assay: Induction of SerA protein expression in Bacillus subtilis 168 at 2.3 uM incubated for 15 mins by 35S-methionine pulse labeling based 2D-PAGE analysis; format: functional, organism-based
Staphylococcus aureus [9] = assay: Antibacterial activity against methicillin-resistant Staphylococcus aureus ATCC 700699 assessed as delay in growth at 1.56 uM measured for 6 hrs; format: functional, organism-based
Bacillus subtilis [10] = assay: Induction of DnaK.2 protein expression in Bacillus subtilis 168 at 2.3 uM incubated for 15 mins by 35S-methionine pulse labeling based 2D-PAGE analysis; format: functional, organism-based
HepG2 = assay: (§1) Cytotoxicity against human HepG2 cells assessed as reduction in cell viability incubated for 48 hrs by resazurin reagent based assay; settings: Homo sapiens, HepG2, 48 h
[11] = as §1; settings: human, HepG2 cells
Bacillus subtilis [12] = assay: Induction of YdjE protein expression in Bacillus subtilis 168 at 2.3 uM incubated for 15 mins by 35S-methionine pulse labeling based 2D-PAGE analysis; format: functional, organism-based
MRC5 = assay: (§2) Cytotoxicity against human MRC5 cells assessed as reduction in cell viability incubated for 48 hrs by resazurin reagent based assay; settings: Homo sapiens, MRC5, 48 h
[13] = as §2; settings: human, MRC5 cells
Bacillus subtilis [14] = assay: Induction of BdhA protein expression in Bacillus subtilis 168 at 2.3 uM incubated for 15 mins by 35S-methionine pulse labeling based 2D-PAGE analysis; format: functional, organism-based
[15] = Cytotoxicity against human CLS54 cells assessed as reduction in cell viability incubated for 48 hrs by resazurin reagent based assay
[16] = Selectivity index, ratio of IC50 for human HEK293 cells to MIC90 for methicillin-resistant Staphylococcus aureus ATCC 700699; format: toxicity; settings: read-out: Selectivity Index
Bacillus subtilis [17] = assay: Induction of YwfI protein expression in Bacillus subtilis 168 at 2.3 uM incubated for 15 mins by 35S-methionine pulse labeling based 2D-PAGE analysis; format: functional, organism-based
Enterococcus faecalis [18] = assay: Antibacterial activity against vancomycin-resistant Enterococcus faecalis ATCC 700221 by broth micro dilution method; format: functional
Bacillus subtilis [19] = assay: Induction of GroES protein expression in Bacillus subtilis 168 at 2.3 uM incubated for 15 mins by 35S-methionine pulse labeling based 2D-PAGE analysis; format: functional, organism-based
Bacillus subtilis [20] = assay: Induction of Tpx protein expression in Bacillus subtilis 168 at 2.3 uM incubated for 15 mins by 35S-methionine pulse labeling based 2D-PAGE analysis; format: functional, organism-based
Staphylococcus aureus [21] = assay: Antibacterial activity against Staphylococcus aureus ATCC 25923 by broth micro dilution method; format: functional
Bacillus subtilis [22] = assay: Induction of Cah protein expression in Bacillus subtilis 168 at 2.3 uM incubated for 15 mins by 35S-methionine pulse labeling based 2D-PAGE analysis; format: functional, organism-based
Erythrocyte = assay: Hemolytic activity against human erythrocytes at =>100 uM measured up to 24 hrs; format: ADME, cell-based
HEK293 = assay: (§3) Cytotoxicity against human HEK293 cells assessed as reduction in cell viability incubated for 48 hrs by resazurin reagent based assay; settings: Homo sapiens, HEK293, 48 h
[23] = as §3; settings: human, HEK293 cells
Bacillus subtilis [24] = assay: Induction of GroEL.3 protein expression in Bacillus subtilis 168 at 2.3 uM incubated for 15 mins by 35S-methionine pulse labeling based 2D-PAGE analysis; format: functional, organism-based
Bacillus subtilis [25] = assay: Induction of PspA protein expression in Bacillus subtilis 168 at 2.3 uM incubated for 15 mins by 35S-methionine pulse labeling based 2D-PAGE analysis; format: functional, organism-based
THP-1 = assay: (§4) Cytotoxicity against human THP1 cells assessed as reduction in cell viability incubated for 48 hrs by resazurin reagent based assay; settings: Homo sapiens, THP-1, 48 h
[26] = as §4; parameters: species or system THP-1; settings: human, THP1 cells
Bacillus subtilis [27] = assay: Induction of Hom protein expression in Bacillus subtilis 168 at 2.3 uM incubated for 15 mins by 35S-methionine pulse labeling based 2D-PAGE analysis; format: functional, organism-based
Enterococcus faecalis [28] = assay: Antibacterial activity against Enterococcus faecalis ATCC 29212 by broth micro dilution method; format: functional
Bacillus subtilis [29] = assay: Induction of LiaH.2 protein expression in Bacillus subtilis 168 at 2.3 uM incubated for 15 mins by 35S-methionine pulse labeling based 2D-PAGE analysis; format: functional, organism-based
Bacillus subtilis [30] = assay: Induction of PepF protein expression in Bacillus subtilis 168 at 2.3 uM incubated for 15 mins by 35S-methionine pulse labeling based 2D-PAGE analysis; format: functional, organism-based
Bacillus subtilis [31] = assay: Induction of CysK protein expression in Bacillus subtilis 168 at 2.3 uM incubated for 15 mins by 35S-methionine pulse labeling based 2D-PAGE analysis; format: functional, organism-based
Bacillus subtilis [32] = assay: Induction of YqiG protein expression in Bacillus subtilis 168 at 2.3 uM incubated for 15 mins by 35S-methionine pulse labeling based 2D-PAGE analysis; format: functional, organism-based
Bacillus subtilis [33] = assay: Induction of NfrA protein expression in Bacillus subtilis 168 at 2.3 uM incubated for 15 mins by 35S-methionine pulse labeling based 2D-PAGE analysis; format: functional, organism-based
Bacillus subtilis [34] = assay: Induction of TrxA protein expression in Bacillus subtilis 168 at 2.3 uM incubated for 15 mins by 35S-methionine pulse labeling based 2D-PAGE analysis; format: functional, organism-based
Bacillus subtilis [35] = assay: Induction of FabG protein expression in Bacillus subtilis 168 at 2.3 uM incubated for 15 mins by 35S-methionine pulse labeling based 2D-PAGE analysis; format: functional, organism-based
Acinetobacter baumannii = assay: Antibacterial activity against Acinetobacter baumannii ATCC BAA-747 by broth micro dilution method; format: functional
Bacillus subtilis [36] = assay: Induction of AroA protein expression in Bacillus subtilis 168 at 2.3 uM incubated for 15 mins by 35S-methionine pulse labeling based 2D-PAGE analysis; format: functional, organism-based
Pseudomonas aeruginosa = assay: Antibacterial activity against Pseudomonas aeruginosa ATCC 27853 by broth micro dilution method; format: functional

SMILES: CC(C)=CCC/C(C)=C/Cc1c(O)ccc(C(=O)/C=C/c2ccc(O)cc2)c1O [XANTHOANGELOL]
- Activity (Bacillus subtilis [1]): Active
- Activity (Staphylococcus aureus [2]): Active
- Activity (Bacillus subtilis [3]): Active
- Activity (Bacillus subtilis [4]): Active
- Activity (Bacillus subtilis [5]): Active
- Activity (Bacillus subtilis [6]): Active
- Activity (Staphylococcus aureus [7]): Active
- Activity (Bacillus subtilis [8]): Active
- Activity (Staphylococcus aureus [9]): Active
- Activity (Bacillus subtilis [10]): Active
- IC50 (HepG2): 13.7 µM
- IC90 at 48 h [11]: 37.4 µM
- Activity (Bacillus subtilis [12]): Active
- IC50 (MRC5): 21.7 µM
- IC90 at 48 h [13]: 27.6 µM
- Activity (Bacillus subtilis [14]): Active
- IC50 ([15]; Homo sapiens, 48 h): 58.8 µM
- IC90 at 48 h ([15]; human, CLS54 cells): 85.8 µM
- selectivity ratio [16]: 16.2
- Activity (Bacillus subtilis [17]): Active
- MIC (Enterococcus faecalis [18]): 3.12 µM (≈ 1.23 µg/mL)
- Activity (Bacillus subtilis [19]): Active
- Activity (Bacillus subtilis [20]): Active
- MIC (Staphylococcus aureus [21]): 6.25 µM (≈ 2.45 µg/mL)
- Activity (Bacillus subtilis [22]): Active
- Activity (Erythrocyte): Toxic
- IC50 (HEK293): 21.5 µM
- IC90 at 48 h [23]: 44.8 µM
- Activity (Bacillus subtilis [24]): Active
- Activity (Bacillus subtilis [25]): Active
- IC50 (THP-1): 23.6 µM
- IC90 at 48 h [26]: 39.1 µM
- Activity (Bacillus subtilis [27]): Active
- MIC (Enterococcus faecalis [28]): 12.5 µM (≈ 4.91 µg/mL)
- Activity (Bacillus subtilis [29]): Active
- Activity (Bacillus subtilis [30]): Active
- Activity (Bacillus subtilis [31]): Active
- Activity (Bacillus subtilis [32]): Active
- Activity (Bacillus subtilis [33]): Active
- Activity (Bacillus subtilis [34]): Active
- Activity (Bacillus subtilis [35]): Active
- MIC (Acinetobacter baumannii): > 100 µM
- Activity (Bacillus subtilis [36]): Active
- MIC (Pseudomonas aeruginosa): > 100 µM
